The source made the active and inactive calls. The calls are words filed in the database; no cut-off is given here.
How the values were obtained:
HeLa [1] = experiment: Cell cycle arrest in human HeLa cells assessed as enhanced ratio of cell death at 10 umol after 72 hrs using propidium iodide staining by flow cytometry relative to control; assay type: functional
MDA-MB-231 = experiment: Cytotoxicity against human MDA-MB-231 cells after 4 days by MTT assay; assay type: functional, cell-based; settings: MDA-MB-231, 96 h
HeLa [2] = experiment: Cell cycle arrest in human HeLa cells assessed as fold increase in G1 phase at 10 umol after 36 hrs using propidium iodide staining by flow cytometry relative to control; assay type: functional
DU-145 = experiment: Cytotoxicity against human DU145 cells after 4 days by MTT assay; assay type: functional, cell-based; settings: DU-145, 96 h
HL-60 = experiment: Cytotoxicity against human HL60 cells after 4 days by MTT assay; assay type: functional, cell-based; settings: HL-60, 96 h
HCT-29 = experiment: Cytotoxicity against human HCT29 cells after 4 days by MTT assay; assay type: functional, cell-based; settings: HCT-29, 96 h
HeLa [3] = experiment: Cytotoxicity against human HeLa cells after 4 days by MTT assay; assay type: functional, cell-based; settings: 96 h
[4] = biological target: Poly [ADP-ribose] polymerase 1 (Homo sapiens) (UniProt P09874); experiment: Inhibition of PARP1
Poly [ADP-ribose] polymerase 1 (Homo sapiens), sequence (P09874 whole entry): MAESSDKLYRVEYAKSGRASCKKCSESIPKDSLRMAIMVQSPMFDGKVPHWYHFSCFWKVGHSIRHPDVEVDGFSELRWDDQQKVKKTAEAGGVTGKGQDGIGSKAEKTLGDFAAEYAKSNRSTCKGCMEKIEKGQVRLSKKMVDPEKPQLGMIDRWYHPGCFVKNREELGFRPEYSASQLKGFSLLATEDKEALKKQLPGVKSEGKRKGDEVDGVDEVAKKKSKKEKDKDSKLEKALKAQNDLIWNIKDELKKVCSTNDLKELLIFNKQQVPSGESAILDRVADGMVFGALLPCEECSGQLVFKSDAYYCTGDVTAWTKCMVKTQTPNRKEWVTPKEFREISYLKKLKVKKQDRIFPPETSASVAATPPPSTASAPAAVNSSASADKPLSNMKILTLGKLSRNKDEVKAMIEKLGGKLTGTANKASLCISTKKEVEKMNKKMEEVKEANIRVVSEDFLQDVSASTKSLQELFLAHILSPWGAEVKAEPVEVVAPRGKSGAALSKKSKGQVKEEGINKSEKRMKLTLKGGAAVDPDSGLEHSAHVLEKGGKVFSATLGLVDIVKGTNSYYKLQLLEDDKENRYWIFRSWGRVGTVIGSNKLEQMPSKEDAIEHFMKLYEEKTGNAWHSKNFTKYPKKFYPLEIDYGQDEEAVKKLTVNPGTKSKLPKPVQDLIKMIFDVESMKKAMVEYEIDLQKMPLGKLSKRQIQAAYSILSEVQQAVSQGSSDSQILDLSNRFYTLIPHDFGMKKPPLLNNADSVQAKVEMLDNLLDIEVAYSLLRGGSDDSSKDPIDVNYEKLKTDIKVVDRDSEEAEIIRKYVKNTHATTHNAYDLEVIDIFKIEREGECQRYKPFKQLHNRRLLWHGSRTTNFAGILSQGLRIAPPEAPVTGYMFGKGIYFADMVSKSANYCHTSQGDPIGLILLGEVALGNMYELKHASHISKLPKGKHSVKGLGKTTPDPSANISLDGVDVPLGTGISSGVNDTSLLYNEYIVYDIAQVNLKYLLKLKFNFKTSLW

Row | Structure (SMILES) | Ratio (HeLa [1]) | IC50 (MDA-MB-231) [µM] | fold change (FC) (HeLa [2]) | IC50 (DU-145) [µM] | IC50 (HL-60) [µM] | IC50 (HCT-29) [µM] | IC50 (HeLa [3]) [µM] | inhibition [4]
1 | COc1ccc(Cn2c(-c3ccc(C(=O)N4CCN(S(=O)(=O)c5ccc(OC)cc5)CC4)cc3)nc3ccccc3c2=O)cc1 | 7.29 | 9.9 | 1.18 | 5.8 | 3.8 | 5.8 | 16.5 | 
2 | O=C(c1ccc(-c2nc3ccccc3c(=O)[nH]2)cc1)N1CCN(S(=O)(=O)c2ccc([N+](=O)[O-])cc2)CC1 |  | 12.5 |  | 25.2 | 2 | 2.6 | 20 | inactive
3 | O=C(c1ccc(-c2nc3ccccc3c(=O)n2Cc2ccccc2)cc1)N1CCN(S(=O)(=O)c2ccccc2)CC1 |  | 19.3 |  | 15.3 | 4.2 | 23.6 | 20.1 | 
4 | O=C(c1ccc(-c2nc3ccccc3c(=O)[nH]2)cc1)N1CCN(S(=O)(=O)Cc2ccccc2)CC1 | 7.04 | 15.8 | 1.21 | 7.7 | 18.7 | 2.3 | 9.1 | inactive
5 | O=C(c1ccc(-c2nc3ccccc3c(=O)[nH]2)cc1)N1CCNCC1 |  | > 50 |  | 24.3 | 16.7 | > 50 | > 50 | 
6 | CC(C)(C)OC(=O)N1CCN(C(=O)c2ccc(-c3nc4ccccc4c(=O)[nH]3)cc2)CC1 |  | 8.5 |  | > 50 | 15.4 | 20.7 | 20.7 | 
7 | O=C(c1ccc(-c2nc3ccccc3c(=O)[nH]2)cc1)N1CCN(S(=O)(=O)C2CCCC2)CC1 | 5.96 | 14.7 | 1.2 | 4.8 | 11.2 | 12.9 | 11.2 | 
8 | Cc1ccc(CS(=O)(=O)N2CCN(C(=O)c3ccc(-c4nc5ccccc5c(=O)[nH]4)cc3)CC2)cc1 |  | 7.7 |  | 29.6 | 16.7 | 19.5 | 9 | 
9 | CC(C)(C)OC(=O)N1CCN(C(=O)c2ccc(-c3nc4ccccc4c(=O)n3Cc3ccccc3)cc2)CC1 |  | 40.4 |  | > 50 | 2.9 | > 50 | 21.6 | 
10 | CC(C)c1ccc(S(=O)(=O)N2CCN(C(=O)c3ccc(-c4nc5ccccc5c(=O)[nH]4)cc3)CC2)cc1 |  | 9.4 |  | 16.2 | 2.6 | 9 | 17.2 | 
11 | COc1ccc(Cn2c(-c3ccc(C(=O)N4CCN(S(=O)(=O)c5ccccc5)CC4)cc3)nc3ccccc3c2=O)cc1 | 6.83 | 4.2 | 1.19 | 2.5 | 2.6 | 8.6 | 2.9 | 
12 | O=C(c1ccc(-c2nc3ccccc3c(=O)[nH]2)cc1)N1CCN(S(=O)(=O)c2ccccc2C(F)(F)F)CC1 |  | 5.5 |  | 24.7 | 14.1 | > 50 | 8.3 | 
13 | O=C(O)c1ccc(-c2nc3ccccc3c(=O)[nH]2)cc1 |  | > 50 |  | 28.1 | 11.7 | 30.6 | > 50 | 
14 | Cn1c(-c2ccc(C(=O)N3CCN(S(=O)(=O)c4ccccc4)CC3)cc2)nc2ccccc2c1=O |  | 9.1 |  | 10.4 | 5.9 | 13.3 | 14.1 | 
15 | COc1cccc2c1C(=O)c1c(O)c3c(c(O)c1C2=O)C[C@@](O)(C(=O)CO)C[C@@H]3O[C@H]1C[C@H](N)[C@H](O)[C@H](C)O1 [DOXORUBICIN] |  |  |  | 1.9 | 0.8 | 2.5 | 3.7 | 
16 | O=C(c1ccc(-c2nc3ccccc3c(=O)[nH]2)cc1)N1CCN(S(=O)(=O)c2cccc3ccccc23)CC1 |  | 22.2 |  | 9.9 | 7 | 11.6 | 11.7 | 
17 | O=C(c1ccc(-c2nc3ccccc3c(=O)[nH]2)cc1)N1CCN(S(=O)(=O)c2ccccc2)CC1 |  | 32.6 |  | 7.1 | 14.3 | 12.5 | 8.9 | 

Row | Structure (SMILES) | Ratio (HeLa [1]) | IC50 (MDA-MB-231) [µM] | fold change (FC) (HeLa [2]) | IC50 (DU-145) [µM] | IC50 (HL-60) [µM] | IC50 (HCT-29) [µM] | IC50 (HeLa [3]) [µM] | inhibition [4]
18 | O=C(c1ccc(-c2nc3ccccc3c(=O)[nH]2)cc1)N1CCN(S(=O)(=O)c2ccc(Cl)cc2)CC1 |  | > 50 |  | > 50 | 13.6 | > 50 | 18 | 
19 | O=C(c1ccc(-c2nc3ccccc3c(=O)[nH]2)cc1)N1CCN(S(=O)(=O)c2ccc(C(F)(F)F)cc2)CC1 |  | 31.4 |  | 14.9 | 6.5 | 21.6 | 13.4 | 
20 | O=C(c1ccc(-c2nc3ccccc3c(=O)[nH]2)cc1)N1CCN(S(=O)(=O)c2cccc3cccnc23)CC1 |  | 6.3 |  | 15.6 | 14.6 | > 50 | 11.1 | 
21 | O=C(c1ccc(-c2nc3ccccc3c(=O)[nH]2)cc1)N1CCN(S(=O)(=O)C2CC2)CC1 |  | 8.2 |  | 6 | 10.8 | > 50 | > 50 | 
22 | Cc1ccc(S(=O)(=O)N2CCN(C(=O)c3ccc(-c4nc5ccccc5c(=O)[nH]4)cc3)CC2)cc1 |  | 43.5 |  | 18.1 | 8.4 | 10.5 | 23.5 | 
23 | CS(=O)(=O)N1CCN(C(=O)c2ccc(-c3nc4ccccc4c(=O)[nH]3)cc2)CC1 |  | 6.4 |  | 20 | 11.6 | > 50 | > 50 | 
24 | O=C(c1ccc(-c2nc3ccccc3c(=O)[nH]2)cc1)N1CCN(S(=O)(=O)Cc2ccc(Cl)cc2)CC1 | 8.74 | > 50 | 1.2 | 27.1 | > 50 | 12.6 | 4.4 | 
25 | CC(C)S(=O)(=O)N1CCN(C(=O)c2ccc(-c3nc4ccccc4c(=O)[nH]3)cc2)CC1 |  | 5.8 |  | 17.4 | 7.5 | > 50 | 11 | 
26 | O=C(c1ccc(-c2nc3ccccc3c(=O)[nH]2)cc1)N1CCN(S(=O)(=O)c2cccc(C(F)(F)F)c2)CC1 |  | > 50 |  | 14.1 | 23.5 | 9.5 | 9.3 | 
27 | O=C(c1ccc(-c2nc3ccccc3c(=O)[nH]2)cc1)N1CCN(S(=O)(=O)c2cccs2)CC1 |  | 9.4 |  | 21.3 | 2.2 | 15.7 | > 50 | 
28 | CCCCS(=O)(=O)N1CCN(C(=O)c2ccc(-c3nc4ccccc4c(=O)[nH]3)cc2)CC1 |  | 1.2 |  | 17.9 | 14.9 | 10.3 | 17.3 | 
29 | O=C(c1ccc(-c2nc3ccccc3c(=O)[nH]2)cc1)N1CCN(S(=O)(=O)c2ccc3ccccc3c2)CC1 |  | > 50 |  | 27.8 | 26.6 | 16.5 | 13.3 | 
30 | COc1ccc(S(=O)(=O)N2CCN(C(=O)c3ccc(-c4nc5ccccc5c(=O)n4Cc4ccccc4)cc3)CC2)cc1 |  | 48.1 |  | 16 | 6.1 | 22.5 | 34.2 | 
31 | COc1ccc(S(=O)(=O)N2CCN(C(=O)c3ccc(-c4nc5ccccc5c(=O)[nH]4)cc3)CC2)cc1 |  | 5.1 |  | 27 | 7.5 | 21.6 | > 50 | 
32 | COc1ccc(S(=O)(=O)N2CCN(C(=O)c3ccc(-c4nc5ccccc5c(=O)n4C)cc3)CC2)cc1 |  | > 50 |  | 21.5 | 5.9 | 25.8 | 23.7 | 
33 | O=C(c1ccc(-c2nc3ccccc3c(=O)[nH]2)cc1)N1CCN(S(=O)(=O)c2ccc(F)cc2)CC1 |  | 27.7 |  | 35 | 10.9 | 11.1 | 35.4 | 
34 | Cn1c(-c2ccc(C(=O)N3CCN(C(=O)OC(C)(C)C)CC3)cc2)nc2ccccc2c1=O |  | 24.9 |  | 17.2 | 9.5 | 28 | 15.5 | 
